Measurements reported in article PMC3510438, “The transmembrane tyrosines Y56, Y91 and Y167 play important roles in determining the affinity and transport rate of the rabbit proton-coupled peptide transporter PepT1” (The International Journal of Biochemistry & Cell Biology, 2009).
Changes are numbered by the printed parent chain.

What was measured:
Experiment in all cases: Uptake of tracer [3H]-D-Phe-L-Gln into Xenopus oocytes
Format in all cases: cell-based, rabbit
Y167F-rPepT1 = target: T1, Y167F-rPepT1 (Oryctolagus cuniculus, UniProt P36836, Y167F)
T1 construct: expressed in transfected cells; host or cells: Xenopus laevis oocytes injected with cRNA
T1 sequence (P36836 1-707 Y167F): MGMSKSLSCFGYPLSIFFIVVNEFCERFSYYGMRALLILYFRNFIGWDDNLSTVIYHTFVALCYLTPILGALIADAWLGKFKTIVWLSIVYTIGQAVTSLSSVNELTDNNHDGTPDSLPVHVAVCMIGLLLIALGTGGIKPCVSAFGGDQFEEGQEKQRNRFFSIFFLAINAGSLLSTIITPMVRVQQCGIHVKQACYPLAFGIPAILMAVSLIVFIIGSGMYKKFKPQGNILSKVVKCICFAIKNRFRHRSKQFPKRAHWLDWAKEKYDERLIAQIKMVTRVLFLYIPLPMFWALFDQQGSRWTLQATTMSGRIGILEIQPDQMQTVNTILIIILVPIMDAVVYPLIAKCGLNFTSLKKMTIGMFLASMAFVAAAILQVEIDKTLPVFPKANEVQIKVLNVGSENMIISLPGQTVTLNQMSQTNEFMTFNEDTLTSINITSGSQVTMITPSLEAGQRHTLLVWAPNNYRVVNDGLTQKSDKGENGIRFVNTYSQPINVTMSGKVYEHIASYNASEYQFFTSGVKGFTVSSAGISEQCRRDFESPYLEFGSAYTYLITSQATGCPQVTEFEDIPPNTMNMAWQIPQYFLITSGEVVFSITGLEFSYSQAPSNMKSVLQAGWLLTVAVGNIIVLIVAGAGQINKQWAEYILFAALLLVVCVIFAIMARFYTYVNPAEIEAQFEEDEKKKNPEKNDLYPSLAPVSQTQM
Procedure: (§1) rPepT1 constructs were linearised with XbaI (New England Biolabs, UK) and cRNA generated by in vitro transcription (T7 mMessage mMachine, Ambion, Cambridgeshire, UK). Xenopus laevis oocytes were obtained under MS222 anaesthesia (0.2%, w/v) in accordance with the UK Animals (Scientific Procedures) Act, 1986, and maintained at 18 °C in modified Barth's medium (88 mM NaCl, 1 mM KCl, 0.82 mM MgSO4, 2.4 mM NaHCO3, 0.42 mM CaCl2, 10 mM Hepes, 5 mM sodium pyruvate, 50 μg ml^−1 gentamicin (Fluka, Poole, UK), adjusted to pH 7.6 with 1 M NaOH). Transport measurements were performed at least 72 h after micro-injection of oocytes with 27nl cRNA (1 μg/μl), with medium changed daily.
(§2) Uptake of [^3H]-D-Phe-L-Gln (17.4 Ci/mmole, custom synthesised, Cambridge Research Biochemicals, Stockton-on-Tees, UK) was performed as previously described ([Meredith, 2004]). Briefly, 5 oocytes were incubated in 100 μl of uptake medium (95 mM NaCl, 2 mM KCl, 1 mM CaCl2, 0.42 mM MgCl2, 10 mM Tris/Hepes pH 7.4 or Tris/Mes pH 5.5) with tracer (0.4 μM) [^3H]-D-Phe-L-Gln. After incubation, the oocytes were washed sequentially five times in 1 ml of ice-cold 120 mM NaCl solution, lysed individually with 100 μl 2% (w/v) SDS and liquid scintillation counted. As a control non-injected oocytes were also incubated in uptake medium with D-Phe-L-Gln as above.

Y167Q-rPepT1 = target: T2, Y167Q-rPepT1 (Oryctolagus cuniculus, UniProt P36836, Y167Q); settings: both pHout 5.5 and 7.4
T2 construct: expressed in transfected cells; host or cells: Xenopus laevis oocytes injected with cRNA
T2 sequence (P36836 1-707 Y167Q): T1 sequence (P36836 1-707 Y167F) with F167Q
Procedure: as §1, §2

Y167R-rPepT1 = target: T3, Y167R-rPepT1 (Oryctolagus cuniculus, UniProt P36836, Y167R); settings: both pHout 5.5 and 7.4
T3 construct: expressed in transfected cells; host or cells: Xenopus laevis oocytes injected with cRNA
T3 sequence (P36836 1-707 Y167R): T1 sequence (P36836 1-707 Y167F) with F167R
Procedure: as §1, §2

[^3H]-D-Phe-L-Gln
reduction of uptake compared to the wild-type (Y167F-rPepT1; both pHout 5.5 and 7.4): > 90%
decrease in rate of uptake compared to the wild-type (Y167F-rPepT1; pHout 5.5, 1 h): ~90%
reduction of uptake compared to the wild-type (Y167Q-rPepT1): > 90%
reduction of uptake compared to the wild-type (Y167R-rPepT1): > 90%
